Patent US9359337B2, “Acetamide derivatives” (Hoffmann-La Roche Inc., priority 2012, dated 2016)

Target: h-TRPA1 (Homo sapiens (Human), UniProt O75762)
Assay: Dose response calcium flux (FLIPR) assay, ChanTest hTRPA1-CHO stably transfected cell line
Format: cell-based
Conditions: CHO-K1 Tet-on TRPA1 cells; calcium flux after cinnamaldehyde 100 uM agonist; 30 min compound preincubation
Protocol: Dose Response Assay: ChanTest hTRPA1-CHO Stably Transfected Cell Line
To induce expression, tetracycline was added to blasticidin/zeocin-free media at a final concentration of 1 ug/ml. Experiments were run at 24 hours post induction.
• Harvested cells with 0.025% trypsin/EDTA. • Resuspended cells in growth media without selection antibiotics. • Measured cell density and diluted to 2.4×10^5 cells/ml in media containing 1 ug/ml Doxycycline Plate 25 ul/well into 384 well black/clear tissue culture-treated plates. • Incubated overnight at 37° C. Calcium Flux Assay: Day of Assay: Reagents: • Replacement Buffer: Hank's Balanced Salt Solution, 20 mM HEPES along with 0.005% BSA and 2× Probenecid • Dye Loading Buffer: Cal-3 NW Calcium dye was prepared by dissolving the contents of one vial with […] Hank's Balanced Salt Solution containing 20 mM HEPES. Control Compounds for CHOK1/TRPA1 Cells: • AP-18, stock 10 mM, prepare 3.5× compound dilution in a Compound Buffer (HBSS/20 mM HEPES/0.005% BSA)—final concentration 10 uM. Preparation of Cinnamaldehyde (Agonist Addition): • FW=132.16 • Specific gravity=1.046 gm/cc • 1.32 gm/1.046 gm/cc=1.26 ml of stock • Add 1.74 ml DMSO=3.3 M stock • Working solution 4.5× (final 100 uM in Compound Buffer: HBSS/20 mM HEPES/0.005% BSA) Compounds dilutions were prepared from 5 or 10 mM stock (100% DMSO):
Compounds were tested at either 20 μM three folds dilution 11 steps out or 30 μM two folds dilution 11 steps out.
Growth media was removed from the cell plates (20 ul) and 20 ul of the Replacement Buffer was added followed by addition of 25 ul of diluted dye. All three steps were performed using a Plate Washer BioTek 407. The plates were then incubated for 30′ at RT.
After incubation, both the cell and compound plates were brought to the FLIPR and 20 ul of the diluted compounds/antagonist/bk were transferred to the cell plates by the FLIPR. Plates were then incubated for 30′ at room temperature. After 30′ incubation, plates were returned to the FLIPR and 20 ul of 4.5× Cinnamaldehyde was added to the cell plates. During the compound addition as well as agonist addition, fluorescence readings were taken simultaneously from all 384 wells of the cell plate every 1.5 seconds. Five readings were taken to establish a stable baseline, then 20 ul of sample was rapidly (30 ul/sec) and simultaneously added to each well of the cell plate. The fluorescence was continuously monitored before, during and after sample/agonist addition for a total elapsed time of 100 seconds (compound addition) and 120 seconds (agonist addition). Responses (increase in peak fluorescence) in each well following agonist addition was determined. The initial fluorescence reading from each well, prior to ligand stimulation, was used a zero baseline value for the data from that well.

h-TRPA1, sequence (O75762 whole entry): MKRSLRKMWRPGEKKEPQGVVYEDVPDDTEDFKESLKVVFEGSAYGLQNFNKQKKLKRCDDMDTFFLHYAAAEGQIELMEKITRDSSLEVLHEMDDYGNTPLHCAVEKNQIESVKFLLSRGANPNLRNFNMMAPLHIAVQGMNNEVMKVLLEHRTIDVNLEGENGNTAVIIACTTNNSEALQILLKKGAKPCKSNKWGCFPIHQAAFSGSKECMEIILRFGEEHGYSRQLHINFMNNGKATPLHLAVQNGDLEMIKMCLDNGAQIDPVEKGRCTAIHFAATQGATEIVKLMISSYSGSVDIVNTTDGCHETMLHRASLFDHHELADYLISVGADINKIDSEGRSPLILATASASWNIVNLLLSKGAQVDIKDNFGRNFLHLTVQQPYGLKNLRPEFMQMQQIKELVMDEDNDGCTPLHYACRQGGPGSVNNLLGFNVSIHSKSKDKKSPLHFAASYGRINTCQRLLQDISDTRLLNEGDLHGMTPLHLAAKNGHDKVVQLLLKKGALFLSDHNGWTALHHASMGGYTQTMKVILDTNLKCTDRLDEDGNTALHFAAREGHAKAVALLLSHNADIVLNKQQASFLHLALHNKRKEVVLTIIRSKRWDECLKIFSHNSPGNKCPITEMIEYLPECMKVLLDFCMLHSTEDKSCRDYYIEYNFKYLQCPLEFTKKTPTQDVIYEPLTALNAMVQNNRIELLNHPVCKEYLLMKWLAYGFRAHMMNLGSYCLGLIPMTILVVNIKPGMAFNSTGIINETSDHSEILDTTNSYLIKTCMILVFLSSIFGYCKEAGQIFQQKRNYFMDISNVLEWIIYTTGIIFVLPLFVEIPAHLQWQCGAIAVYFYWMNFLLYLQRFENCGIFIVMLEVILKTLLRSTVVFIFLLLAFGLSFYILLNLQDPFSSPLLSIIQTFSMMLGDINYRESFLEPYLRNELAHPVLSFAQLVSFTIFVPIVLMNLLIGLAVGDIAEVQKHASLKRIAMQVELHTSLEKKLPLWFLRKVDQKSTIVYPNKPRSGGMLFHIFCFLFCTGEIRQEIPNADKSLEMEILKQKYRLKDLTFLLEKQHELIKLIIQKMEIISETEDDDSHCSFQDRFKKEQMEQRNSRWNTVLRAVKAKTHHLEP

| IC50 | SMILES |
| --- | --- |
| 307 nM | CC(C)N(CC(=O)NC[C@@H]1CCCN(c2ccc(C(F)(F)F)cc2)C1)S(=O)(=O)c1ccc(F)cc1 [Example 5, 2-[(4-Fluoro-benzenesulfonyl)-isopropyl-amino]-N—[(S)-1-(4-trifluoromethyl-phenyl)-piperidin-3-ylmethyl]-acetamide] |
| 151 nM | CC(C)N(CC(=O)NC[C@H]1CN(c2ccc(C(F)(F)F)cc2)CCO1)S(=O)(=O)c1ccc(F)cc1 [Example 11, 2-[(4-Fluoro-benzenesulfonyl)-isopropyl-amino]-N—[(S)-4-(4-trifluoromethyl-phenyl)-morpholin-2-ylmethyl]-acetamide] |
| 425 nM | CC(C)N(CC(=O)NCC1CCN(c2ccc(C(F)(F)F)cc2)C1)S(=O)(=O)c1ccc(F)cc1 (centres unmarked) [Example 4, 2-[(4-Fluoro-benzenesulfonyl)-isopropyl-amino]-N-[1-(4-trifluoromethyl-phenyl)-pyrrolidin-3-ylmethyl]-acetamide] |
| 385 nM | CC(C)N(CC(=O)NCC1CN(c2ccc(C(F)(F)F)cn2)CCO1)S(=O)(=O)c1ccc(F)cc1 (centres unmarked) [Example 12, 2-[(4-Fluoro-benzenesulfonyl)-isopropyl-amino]-N-[4-(5-trifluoromethyl-pyridin-2-yl)-morpholin-2-ylmethyl]-acetamide] |
| 1310 nM | CC(C)N(CC(=O)NC[C@@H]1CN(c2ccc(C(F)(F)F)cc2)CCO1)S(=O)(=O)c1ccc(F)cc1 [Example 10, 2-[(4-Fluoro-benzenesulfonyl)-isopropyl-amino]-N—[(R)-4-(4-trifluoromethyl-phenyl)-morpholin-2-ylmethyl]-acetamide] |
| 634 nM | CCN(CC(=O)NCC1CCN(c2ccc(C(F)(F)F)cc2)C1)S(=O)(=O)c1ccc(F)cc1 (centres unmarked) [Example 3, 2-[Ethyl-(4-fluoro-benzenesulfonyl)-amino]-N-[1-(4-trifluoromethyl-phenyl)-pyrrolidin-3-ylmethyl]-acetamide] |
| 504 nM | CC(C)N(CC(=O)NC[C@H]1CCCN(c2ccc(C(F)(F)F)cc2)C1)S(=O)(=O)c1ccc(F)cc1 [Example 6, 2-[(4-Fluoro-benzenesulfonyl)-isopropyl-amino]-N—[(R)-1-(4-trifluoromethyl-phenyl)-piperidin-3-ylmethyl]-acetamide] |
| 226 nM | CCN(CC(=O)NCC1CN(c2ccc(C(F)(F)F)cc2)CCO1)S(=O)(=O)c1ccc(F)cc1 (centres unmarked) [Example 9, 2-[Ethyl-(4-fluoro-benzenesulfonyl)-amino]-N-[4-(4-trifluoromethyl-phenyl)-morpholin-2-ylmethyl]-acetamide] |
| 233 nM | CC(C)N(CC(=O)NCC1CCCN(c2ccc(C(F)(F)F)cc2)C1)S(=O)(=O)c1ccc(F)cc1 (racemic) [Example 2, 2-[(4-Fluoro-benzenesulfonyl)-isopropyl-amino]-N-[1-(4-trifluoromethyl-phenyl)-piperidin-3-ylmethyl]-acetamide] |
| 193 nM | CC(C)N(CC(=O)NCC1CN(c2ccc(C(F)(F)F)cc2)CCO1)S(=O)(=O)c1ccc(F)cc1 (racemic) [Example 8, 2-[(4-Fluoro-benzenesulfonyl)-isopropyl-amino]-N-[4-(4-trifluoromethyl-phenyl)-morpholin-2-ylmethyl]-acetamide] |
| 494 nM | CCN(CC(=O)NCC1CCCN(c2ccc(C(F)(F)F)cc2)C1)S(=O)(=O)c1ccc(F)cc1 (centres unmarked) [Example 1, 2-[Ethyl-(4-fluoro-benzenesulfonyl)-amino]-N-[1-(4-trifluoromethyl-phenyl)-piperidin-3-ylmethyl]-acetamide] |
